Data as given in patent US20150292023A1, “Materials and Methods Related to NSAID Chemoprevention in Colorectal Cancer” (priority 2011, published 2015).
Read-outs that look alike come from different tables or passages of the source.

Assays:
[1] = test system: Msh2^flox/floxVpC^+/+ (LS/HNPCC) mice; assay: Kaplan-Meier survival of LS/HNPCC mice treated with NSAIDs in diet; type: in vivo, mouse
Method: (§1) Cohorts of equivalent gender Msh2^flox/floxVpC^+/+ mice were treated with NSAIDs including ASA that were mixed with powdered diet and administered ad libitum. VpC^+/+ (Msh2^++) mice were similarly examined to control for potentially confounding effects of continuous Cre expression in the intestine. Kaplan-Meier survival analyses were generated for each NSAID treatment (FIG. 2).
A mouse model where exon 12 of Msh2 is flanked by LoxP recombination sites (Msh2^flox/flox) was generated. […] When considering the utility of this mouse model it is important to note that while modern day LS/HNPCC largely occurs in the colon, it was originally described as a gastric cancer.
The endpoint for the chemopreventive analysis of NSAIDs on mouse tumorigenesis is survival. Assessment of tumor kinetics, treatment regimes and pathological changes during tumor development constitute a correlative quantitative database.

[2] = test system: intestinal tumors of LS/HNPCC mice; assay: Tumor number and pathology following NSAID treatment; conditions: for numbers of tumors when sacrificed: untreated 1.90±1.02, statistically equivalent
[3] = test system: MMR-deficient human colon tumor cells; assay: MSI suppression in MMR-defective cells; type: cell-based; conditions: for MSI suppression (in words): long-term exposure of MMR-defective cells
Description: Inhibition of cyclooxygenase-1 (COX1) or COX2 activity that is involved in the production of inflammatory prostaglandins was, in the past, generally considered a mechanism for cancer chemoprevention by NSAIDs.

[4] = test system: microsatellite instability (MSI) in intestinal tissues of LS/HNPCC mice; assay: MSI analysis of tissues by small pool PCR (comparative MSI, Bethesda Criteria); type: in vivo, mouse; conditions: for conversion of MSI to MSS (in words): intestinal compartment of treated mice; for comparative MSI-H proportion: intestinal tumor vs matched adjacent normal tissue, untreated 33%
Method: A MSI analysis on tissues from the ASA and NO-ASA treatment groups by small pool PCR (1-10 genomic equivalents) was performed to determine the distribution of novel alleles between constitutional DNA (Ear, E) as well as normal (N) and tumor (T) intestinal tissues. When multiple samples of each tissue were analyzed, the resulting profiles comprised a representational distribution of the intrinsic allelic diversity. Ear tissues from these mice were consistently MSS, with the major allele always flanked by a relatively unvarying pattern of alleles that arise from PCR amplification-artifacts. Normal and intestinal tissues from ASA and NO-ASA treated mice show variation in major allele sizes and distributions.
A comparative assessment of MSI status was made between intestinal tumors and their matched adjacent normal tissues by determining the absolute changes in microsatellite alterations between them. Comparative MSI provides a quantitative measure of the relative differences in instability between adjacent developmentally related normal and tumor tissues. The Bethesda Criteria for diagnostic microsatellite instability was used: MSS, no changes in microsatellite marker status; high microsatellite instability (MSI-H; ≧2 of 5 markers different).

miR-135a = conditions: intestinal tissue
Method: (§2) Groups of 12 mice were continuously treated (6 VpC^+/+ wild type and 6 Msh2^flox/floxVpC^+/+ LS/HNPCC mice) with each of the eight NSAIDs and the intestines were harvested after two months exposure. A 0.5 cm section of intestine 2.5 cm proximal of the cecum was harvested from each individually treated mouse. High quality mRNA and miRNA was prepared for expression array analysis. To reduce the possibility of day-to-day variation the hybridization of all samples was performed simultaneously as well as sequential expression analysis. Transcriptome expression data from both the mRNA and miRNA chips was analyzed.
(§3) Identifying functional and regulatory connectivity among the differentially regulated miRs and mRNAs was analyzed to begin to determine biological pathways and networks responsible for NSAID-mediated tumor chemoprevention,. A combination of tools were used to deconvolute network interactions, including the ToppGene, ToppCluster, and ToppMir tools.

SMC1a mRNA = conditions: intestinal tissue
Method: as §2, §3

miR-9 = conditions: intestinal tissue
Method: as §2, §3

LS/HNPCC patients = conditions: cited from earlier work; for decrease in the rate of tumor formation / tumor incidence: long-term aspirin exposure (benefit after 5 yrs) vs placebo-treated cohort
VpC^+/+ (wild type) mice = test system: VpC^+/+ (wild type) mice
Method: as §1

NO-sulindac sulphone
effect on survival (in words) ([1]; LS/HNPCC mice vs untreated): No Effect

nitric oxide-donating acetylsalicylic acid [NO-ASA]
mean survival ([1]; 72 mg/kg NO-ASA in diet): 403 days
effect on survival (in words) ([1]; LS/HNPCC mice vs untreated): suppressed tumorigenesis and increased survival
numbers of tumors when sacrificed [2]: 1.78±1.25
dose suppressing MSI, fold lower than ASA ([3]; relative to ASA): 300-3000 fold
conversion of MSI to MSS (in words) [4]: at least partially converted MSI to MSS
comparative MSI-H proportion [4]: 20%

nitric oxide-donating sulindac [NO-Sulindac]
effect on survival (in words) ([1]; mouse, in vivo): increased survival similar to ASA

COc1ccc2cc([C@H](C)C(=O)O)ccc2c1 [Naproxen, naproxen]
miR-135a expression (in words) (miR-135a): down-regulated
SMC1a mRNA expression (in words) (SMC1a mRNA): enhanced
miR-9 expression (in words) (miR-9): down-regulated
mean survival ([1]; 166 mg/kg naproxen in diet): 545 days
mean survival ([1]; 331 mg/kg naproxen in diet): 569 days
effect on survival (in words) ([1]; LS/HNPCC mice vs untreated): nearly double the life span of untreated animals
increase in life span (FIG. 2 grouping) ([1]; representative survival data, vs untreated LS/HNPCC mice): ~100%
numbers of tumors when sacrificed [2]: 1.58±0.67

CC1=C(CC(=O)O)c2cc(F)ccc2/C1=C\c1ccc(S(C)(=O)=O)cc1 [Sulindac Sulfone, sulindac sulfone]
effect on survival (in words) ([1]; LS/HNPCC mice vs untreated): No Effect

CC(=O)Oc1ccccc1C(=O)O [ASA, Acetylsalicylic acid]
mean survival ([1]; 400 mg/kg ASA in diet, untreated median 333 days, p<0.001): 393 days
increase in lifespan ([1]; 400 mg/kg ASA vs untreated): 18%
effect on survival (in words) ([1]; LS/HNPCC mice vs untreated): suppressed tumorigenesis and increased survival
Hazard Ratio (HR) (LS/HNPCC patients; 600 mg aspirin daily vs placebo, tumors by yearly colonoscopy, p=0.02): 0.61(0.1 9, 0.86)
decrease in the rate of tumor formation / tumor incidence (LS/HNPCC patients): ≥ 2 fold
decrease in the rate of tumor formation / tumor incidence (LS/HNPCC patients; listed as aspirin): at least 2 fold
numbers of tumors when sacrificed [2]: 1.68±0.72
MSI suppression (in words) [3]: suppressed MSI
conversion of MSI to MSS (in words) [4]: at least partially converted MSI to MSS
comparative MSI-H proportion [4]: 22%

CC1=C(CC(=O)O)c2cc(F)ccc2/C1=C\c1ccc([S+](C)[O-])cc1 (centres unmarked) [Sulindac, sulindac]
effect on survival (in words) ([1]; LS/HNPCC mice vs untreated): increased survival similar to ASA
tumor induction in wild type controls (in words) (VpC^+/+ (wild type) mice; mouse, in vivo): induces tumors in the wild type controls
survival of wild type mice (in words) (VpC^+/+ (wild type) mice; wild type controls, FIG. 2B): significant reduce the survival of the wild type mice
number of cecal cancers (in words) [2]: increases the number of cecal cancers
MSI suppression (in words) [3]: suppressed MSI
